Source: PubChem BioAssay AID850 (SRMLSC, 2007)
Calls of active or inactive are those of the source. No rule for the calls is given here.

Tests used:
[1] = concentration-response yeast growth inhibition under permissive conditions, counter-assay for yeast lifespan-shortening chemical project (AID 850); details: Saccharomyces cerevisiae growth inhibition, permissive control, measured here: maximum growth inhibition, stronger effect = higher value;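 also: growth read as optical density after one day of incubation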
[2] = test system: Saccharomyces cerevisiae growth inhibition, permissive control; assay: as above

Question: Which inhibition ([1]; at 50 µM) does the source give for `Oc1c(Cl)cc(Cl)c2c1NCCC2` here?
Answer: 99.8%

Question: What about the IC50 [2] of the same compound?
Answer: 15.9 µM

Question: With `Cn1c(SCC(=O)N/N=C/c2ccc([N+](=O)[O-])s2)nnc1-c1ccc(Cl)cc1` as the compound, how does the inhibition ([1]; at 50 µM) read?
Answer: 99.2%

Question: What about the IC50 [2] of the same compound?
Answer: 29.7 µM

Question: What does the source list for `CCc1nc2ccccc2c(=O)n1NC(=O)c1c(O)c2cccc3c2n(c1=O)CCC3`?
Answer: inhibition ([1]; at 50 µM): 2.73%; IC50 [2]: > 100 µM (inactive)

Question: Which inhibition ([1]; at 50 µM) does the source give for `c1ccc2nc3c(nc2c1)[nH]c1ccccc13` here?
Answer: 19.1%

Question: And the IC50 [2]?
Answer: > 100 µM (inactive)

Question: Which inhibition ([1]; at 50 µM) does the source give for `CC1(CCc2ccccc2)NC(=S)N(c2ccccc2)N1` (centres undefined) here?
Answer: 99.8%

Question: And the IC50 [2]?
Answer: 9.11 µM

Question: For `CCOC(=O)CSc1nnc(CSc2nc(N)c3c(C)c(C)sc3n2)n1-c1ccccc1`, which inhibition ([1]; at 0.391 µM) is on record?
Answer: 7.59%

Question: What about the IC50 [2] of the same compound?
Answer: > 100 µM (inactive)

Question: Which results are given for `C=C(C)COc1ccc(-c2[nH]ncc2-c2ccccc2)c(O)c1`?
Answer: inhibition ([1]; at 50 µM): 86.8%; IC50 [2]: 38.6 µM

Question: Which inhibition ([1]; at 50 µM) does the source give for `O=C(OCn1ncc(Cl)c(Cl)c1=O)c1cccc(C(F)(F)F)c1` here?
Answer: 12.7%

Question: And the IC50 [2]?
Answer: > 100 µM (inactive)

Question: For `COCCN1CSC(=S)N(Cc2ccco2)C1`, which inhibition ([1]; at 50 µM) is on record?
Answer: 64.7%

Question: And the IC50 [2]?
Answer: 34.5 µM

Question: For `Cc1cc(-c2ccco2)c(C#N)c2nc3ccccc3n12`, which inhibition ([1]; at 50 µM) is on record?
Answer: 77.8%

Question: What about the IC50 [2] of the same compound?
Answer: 8.64 µM

Question: Which results are given for `CC(=O)NC(=S)c1c(N)n(Cc2ccccc2)c(=O)n(C)c1=O`?
Answer: inhibition ([1]; at 3.125 µM): 7.99%; IC50 [2]: > 100 µM (inactive)

Question: What does the source list for `COc1ccccc1N1CCN(Cc2cc(Br)c(O)c3ncccc23)CC1`?
Answer: inhibition ([1]; at 50 µM): 99.6%; IC50 [2]: 12.7 µM

Question: What does the source list for `COc1ccc(C(=O)/C=C/Nc2ccc(C)cn2)cc1OC`?
Answer: inhibition ([1]; at 1.563 µM): 14.8%; IC50 [2]: > 100 µM (inactive)

Question: Which inhibition ([1]; at 50 µM) does the source give for `Cc1cc(N/N=C/c2ccc(Cl)cc2Cl)nc(NCc2ccccc2)n1` here?
Answer: 99.2%

Question: And the IC50 [2]?
Answer: 31.7 µM

Question: What does the source list for `Cc1cccc(N=C2Sc3nc4c(C)c(C)ccc4cc3CN2CCN2CCOCC2)c1`?
Answer: inhibition ([1]; at 50 µM): 99%; IC50 [2]: 45.1 µM

Question: With `O=C1NC(=S)N(c2ccccc2F)C(=O)/C1=C\c1cccs1` as the compound, how does the inhibition ([1]; at 50 µM) read?
Answer: 91.4%

Question: What about the IC50 [2] of the same compound?
Answer: 13.6 µM

Question: For `CCCc1cc(C(=O)Cc2ccc(F)cc2)c(O)cc1O`, which inhibition ([1]; at 50 µM) is on record?
Answer: 80.4%

Question: What about the IC50 [2] of the same compound?
Answer: 26.9 µM

Question: Which inhibition ([1]; at 50 µM) does the source give for `Clc1ccccc1N/N=C/c1ccc2c(c1)OCO2` here?
Answer: 98%

Question: And the IC50 [2]?
Answer: 24.4 µM

Question: Which inhibition ([1]; at 0.781 µM) does the source give for `O=C1CC(N2CCN(c3nc4ccccc4s3)CC2)C(=O)N1Cc1cccs1` (centres undefined) here?
Answer: 28.5%

Question: And the IC50 [2]?
Answer: > 100 µM (inactive)

Question: With `COc1ccc(/C=C2/C(=O)ON=C2c2ccccc2)cc1OC` as the compound, how does the inhibition ([1]; at 25 µM) read?
Answer: 27.4%

Question: And the IC50 [2]?
Answer: > 100 µM (inactive)

Question: For `Cc1ccc(C(C[N+](=O)[O-])n2nc(C)cc2C)cc1` (centres undefined), which inhibition ([1]; at 50 µM) is on record?
Answer: 99.2%

Question: What about the IC50 [2] of the same compound?
Answer: 13 µM

Question: Which results are given for `O=C(/C(=C/O)N=Nc1ccccc1)c1ccncc1`?
Answer: inhibition ([1]; at 50 µM): 100%; IC50 [2]: 13.3 µM

Question: What does the source list for `COc1ccc(-c2n[nH]c(C(F)(F)F)c2-c2cc3ccccc3o2)c(O)c1`?
Answer: inhibition ([1]; at 50 µM): 53.6%; IC50 [2]: 36.6 µM

Question: What does the source list for `N/C(Cc1ccc(Cl)cc1)=N\OC(=O)c1ccccc1`?
Answer: inhibition ([1]; at 50 µM): 98%; IC50 [2]: 29.8 µM

Question: With `Cc1ccc(C(=O)Oc2ccc(Cl)c3cccnc23)cc1[N+](=O)[O-]` as the compound, how does the inhibition ([1]; at 50 µM) read?
Answer: 73.3%

Question: And the IC50 [2]?
Answer: 40.6 µM

Question: With `O=C(Oc1ccc(Cl)c2cccnc12)c1ccco1` as the compound, how does the inhibition ([1]; at 50 µM) read?
Answer: 100%

Question: And the IC50 [2]?
Answer: 12.4 µM

Question: Which inhibition ([1]; at 50 µM) does the source give for `Cc1cc(O)c(/C=N/Nc2ccccc2)c(=O)o1` here?
Answer: 97.9%

Question: And the IC50 [2]?
Answer: 19.5 µM

Question: Which inhibition ([1]; at 50 µM) does the source give for `Oc1cccc2ccc(Nc3ccccn3)nc12` here?
Answer: 99.4%

Question: And the IC50 [2]?
Answer: 12.5 µM

Question: Which results are given for `CC(=O)NC1C(=O)N=C(SCC(=O)NC2CCCCC2)NC1=O` (centres undefined)?
Answer: inhibition ([1]; at 50 µM): 20.3%; IC50 [2]: > 100 µM (inactive)

Question: With `Cc1cccc(OCCN2CSC(=S)N(C)C2)c1` as the compound, how does the inhibition ([1]; at 50 µM) read?
Answer: 87.3%

Question: What about the IC50 [2] of the same compound?
Answer: 10.6 µM

Question: With `c1ccc(-c2nc(-n3ccnc3)nc(-n3ccnc3)n2)cc1` as the compound, how does the inhibition ([1]; at 1.563 µM) read?
Answer: 17.9%

Question: And the IC50 [2]?
Answer: > 100 µM (inactive)

Question: Which results are given for `COc1ccc2c(C)nc(Nc3nc(C)c(C)c(=O)[nH]3)nc2c1`?
Answer: inhibition ([1]; at 50 µM): 50.7%; IC50 [2]: 44.6 µM

Question: What does the source list for `O=C(Nc1nc(-c2ccccn2)cs1)c1ccc(Br)s1`?
Answer: inhibition ([1]; at 12.5 µM): 99.4%; IC50 [2]: 5.55 µM

Question: With `O=C(Oc1csc(=S)n1C(=O)c1ccccc1)c1ccccc1` as the compound, how does the inhibition ([1]; at 12.5 µM) read?
Answer: 11.4%

Question: And the IC50 [2]?
Answer: > 100 µM (inactive)

Question: For `CC(=O)NC(CCS(C)(=O)=O)C(=O)Nc1ccc2c(c1)OCO2` (centres undefined), which inhibition ([1]; at 1.563 µM) is on record?
Answer: -0.58%

Question: And the IC50 [2]?
Answer: > 100 µM (inactive)

Question: For `Clc1ccc(N=c2ssnc2Cl)cc1`, which inhibition ([1]; at 50 µM) is on record?
Answer: 66.3%

Question: And the IC50 [2]?
Answer: 32.6 µM

Question: What does the source list for `Nc1c(Cl)ncnc1N/N=C/c1ccccn1`?
Answer: inhibition ([1]; at 50 µM): 99.2%; IC50 [2]: 8.45 µM

Question: Which inhibition ([1]; at 25 µM) does the source give for `c1ccc2c(c1)oc1c(N3CCOCC3)ncnc12` here?
Answer: 19.7%

Question: And the IC50 [2]?
Answer: > 100 µM (inactive)

Question: Which results are given for `CCc1cccc(C)c1NC(=S)NCc1ccc2[nH]c(C)cc2c1`?
Answer: inhibition ([1]; at 50 µM): 8.77%; IC50 [2]: > 100 µM (inactive)

Question: For `CCCCCCCOC(=O)C[N+](C)(C)CCOC1CC2CCC1(C)C2(C)C` (centres undefined), which inhibition ([1]; at 50 µM) is on record?
Answer: 99.4%

Question: What about the IC50 [2] of the same compound?
Answer: 29.2 µM

Question: With `COc1ccc(C(=O)N/N=C/c2sc3ccccc3c2O)cc1` as the compound, how does the inhibition ([1]; at 0.781 µM) read?
Answer: 17%

Question: What about the IC50 [2] of the same compound?
Answer: > 100 µM (inactive)

Question: With `Oc1c(C(Nc2nc3ccccc3s2)c2ccco2)ccc2cccnc12` (centres undefined) as the compound, how does the inhibition ([1]; at 50 µM) read?
Answer: 23.2%

Question: What about the IC50 [2] of the same compound?
Answer: > 100 µM (inactive)
